Results from ChEMBL document CHEMBL5370549, “Optimization and evaluation of pyridinyl vinyl sulfones as Nrf2 activator for the antioxidant and anti-inflammatory effects” (Eur J Med Chem, 2023).
Activity calls are given as the source filed them. The calls are words filed in the database; no cut-off is given here.

Columns and labels:
[1] = tested on: Mus musculus; experiment: (§1) Antiinflammatory activity against LPS-induced neuroinflammation C57BL/6N mouse model assessed as reduction of glial cell reactivity by measuring reduction in IBA1 expression in hippocampus CA1 region at 20 mg/kg/day, po administered for 3 days followed by LPS administration for 7 days by immunofluorescence staining based analysis; format: functional, organism-based; details: time 10.0 day
[2] = tested on: Mus musculus; experiment: as §1, with “GFAP” for “IBA1”, “CA3” for “CA1”; format: functional, organism-based; details: time 10.0 day
[3] = target: T1, Nuclear factor erythroid 2-related factor 2 (Mus musculus) (UniProt Q60795); experiment: Activation of Nrf2 in mouse BV-2 cells assessed as increase in Gclm mRNA expression incubated for 3 hrs by qRT-PCR analysis; format: cell-based; details: filed as activator, dose 0.01-3 µM
T1 sequence (whole entry): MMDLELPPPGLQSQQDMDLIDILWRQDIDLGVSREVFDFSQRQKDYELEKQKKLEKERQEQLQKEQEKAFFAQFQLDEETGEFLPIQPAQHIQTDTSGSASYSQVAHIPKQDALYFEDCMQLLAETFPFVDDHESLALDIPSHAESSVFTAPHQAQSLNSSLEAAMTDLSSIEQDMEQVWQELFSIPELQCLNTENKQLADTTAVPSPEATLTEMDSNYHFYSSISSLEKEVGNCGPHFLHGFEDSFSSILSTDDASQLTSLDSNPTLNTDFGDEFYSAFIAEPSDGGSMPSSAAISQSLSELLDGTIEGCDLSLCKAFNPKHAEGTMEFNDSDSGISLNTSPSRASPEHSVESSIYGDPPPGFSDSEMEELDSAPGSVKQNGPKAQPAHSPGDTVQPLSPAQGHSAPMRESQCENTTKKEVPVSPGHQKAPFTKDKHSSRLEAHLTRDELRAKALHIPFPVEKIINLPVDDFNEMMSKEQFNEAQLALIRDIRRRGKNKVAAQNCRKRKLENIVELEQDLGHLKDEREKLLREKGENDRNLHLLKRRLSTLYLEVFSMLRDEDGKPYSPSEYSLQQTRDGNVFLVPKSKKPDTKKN

[4] = target: T1, Nuclear factor erythroid 2-related factor 2 (Mus musculus); experiment: Activation of Nrf2 in mouse BV-2 cells assessed as increase in GCLM protein expression at 3 uM measured after 48 hrs by immunoblot analysis; format: cell-based; details: filed as activator
[5] = target: CYP2C19 (Homo sapiens, UniProt P33261); experiment: Inhibition of CYP2C19 (unknown origin) assessed as enzyme activity at 10 uM relative to control; format: ADME; design: scale not given: the % may be the effect or the level left; details: read-out: Activity
[6] = target: T1, Nuclear factor erythroid 2-related factor 2 (Mus musculus); experiment: Activation of Nrf2 in mouse BV-2 cells assessed as increase in HO-1 protein expression at 3 uM measured after 24 hrs by immunoblot analysis; format: cell-based; details: filed as activator
[7] = tested on: Mus musculus; experiment: as §1, with “GFAP” for “IBA1”, “cortex” for “hippocampus CA1 region”; format: functional, organism-based; details: time 10.0 day
[8] = tested on: Mus musculus; experiment: as §1, with “dentate gyrus” for “hippocampus CA1 region”; format: functional, organism-based; details: time 10.0 day
[9] = tested on: BV-2; experiment: Antiinflammatory activity against LPS-induced mouse BV-2 cells assessed as inhibition of NOS2 mRNA expression at 0.1 to 3 uM pretreated for 6 hrs followed by LPS stimulation for 6 hrs by qRT-PCR analysis; format: functional, cell-based; details: dose 0.1-3 µM, time 12.0 hrs
[10] = tested on: BV-2; experiment: Antiinflammatory activity against LPS-induced mouse BV-2 cells assessed as inhibition of IL-1 beta protein expression at 0.001 to 1 uM pretreated for 6 hrs followed by LPS stimulation for 24 hrs by immunoblot analysis; format: functional, cell-based; details: dose 0.001-1 µM, time 30.0 hrs
[11] = Toxicity against C57BL/6N mouse at 1000 mg/kg, po administered as single dose; format: organism-based; details: in vivo
[12] = target: T1, Nuclear factor erythroid 2-related factor 2 (Mus musculus); experiment: Activation of Nrf2 in mouse BV-2 cells assessed as increase in Nrf2 level in whole cell lysates at 3 uM measured after 48 hrs by immunoblot analysis; format: subcellular
[13] = tested on: BV-2; experiment: Antiinflammatory activity against LPS-induced mouse BV-2 cells assessed as inhibition of TNF-alpha production at 0.1 to 3 uM pretreated for 6 hrs followed by LPS stimulation for 24 hrs by ELISA; format: functional, cell-based; details: dose 0.1-3 µM, time 30.0 hrs
[14] = target: T1, Nuclear factor erythroid 2-related factor 2 (Mus musculus); experiment: Activation of Nrf2 in mouse BV-2 cells assessed as increase in Nrf2 level in whole cell lysates measured after 3 hrs by immunoblot analysis; format: subcellular; details: filed as activator, dose 0.01-3 µM
[15] = target: T1, Nuclear factor erythroid 2-related factor 2 (Mus musculus); experiment: Activation of Nrf2 in mouse BV-2 cells assessed as increase in HO-1 protein expression at 3 uM measured after 9 hrs by immunoblot analysis; format: cell-based; details: filed as activator
[16] = target: T2, CYP1A2 (Homo sapiens, UniProt P05177); experiment: Inhibition of CYP1A2 (unknown origin) assessed as enzyme activity at 10 uM relative to control; format: ADME; design: scale not given: the % may be the effect or the level left; details: read-out: Activity
T2 sequence (P05177 whole entry): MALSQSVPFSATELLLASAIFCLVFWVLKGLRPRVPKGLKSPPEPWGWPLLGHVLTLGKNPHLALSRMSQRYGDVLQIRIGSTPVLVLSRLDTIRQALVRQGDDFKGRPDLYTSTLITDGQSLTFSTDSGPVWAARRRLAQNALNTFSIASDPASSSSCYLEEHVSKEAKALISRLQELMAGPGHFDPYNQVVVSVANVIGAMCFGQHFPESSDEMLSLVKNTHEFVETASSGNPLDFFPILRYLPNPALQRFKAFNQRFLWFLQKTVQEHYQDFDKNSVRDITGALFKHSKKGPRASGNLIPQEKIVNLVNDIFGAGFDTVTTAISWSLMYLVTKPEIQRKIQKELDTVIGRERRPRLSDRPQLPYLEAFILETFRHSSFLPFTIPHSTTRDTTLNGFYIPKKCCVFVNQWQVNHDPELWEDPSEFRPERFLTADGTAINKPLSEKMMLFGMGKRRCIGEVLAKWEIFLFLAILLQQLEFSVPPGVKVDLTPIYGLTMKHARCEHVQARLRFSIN

[17] = target: T1, Nuclear factor erythroid 2-related factor 2 (Mus musculus); experiment: Activation of Nrf2 in mouse BV-2 cells assessed as increase in Nrf2 nuclear translocation measured after 3 hrs by immunoblot analysis; format: subcellular; details: Nucleus, filed as activator, dose 0.01-3 µM
[18] = tested on: Mus musculus; experiment: as §1, with “GFAP” for “IBA1”, “dentate gyrus” for “hippocampus CA1 region”; format: functional, organism-based; details: time 10.0 day
[19] = tested on: Mus musculus; experiment: Antiinflammatory activity against LPS-induced neuroinflammation C57BL/6N mouse model assessed as inhibition of TNF-alpha production in plasma at 20 mg/kg/day, po administered for 3 days followed by LPS administration for 7 days by ELISA; format: functional, organism-based; details: time 10.0 day
[20] = tested on: BV-2; experiment: Cytotoxicity against mouse BV-2 cells assessed as effect on cell viability upto 3 uM incubated for 24 hrs by WST assay; format: toxicity, cell-based; details: bv-2, 24 h
[21] = Metabolic stability of the compound in human liver microsomes assessed as parent compound remaining measured after 30 mins; format: ADME, Microsome; details: read-out: Stability
[22] = Metabolic stability of the compound in mouse liver microsomes assessed as parent compound remaining measured after 30 mins; format: ADME, Microsome; details: read-out: Stability
[23] = tested on: BV-2; experiment: Antiinflammatory activity against LPS-induced mouse BV-2 cells assessed as inhibition of NO production at 0.001 to 1 uM pretreated for 6 hrs followed by LPS stimulation for 24 hrs by Griess assay; format: functional, cell-based; details: dose 0.001-1 µM, time 30.0 hrs

CYP2C19, sequence (P33261 whole entry): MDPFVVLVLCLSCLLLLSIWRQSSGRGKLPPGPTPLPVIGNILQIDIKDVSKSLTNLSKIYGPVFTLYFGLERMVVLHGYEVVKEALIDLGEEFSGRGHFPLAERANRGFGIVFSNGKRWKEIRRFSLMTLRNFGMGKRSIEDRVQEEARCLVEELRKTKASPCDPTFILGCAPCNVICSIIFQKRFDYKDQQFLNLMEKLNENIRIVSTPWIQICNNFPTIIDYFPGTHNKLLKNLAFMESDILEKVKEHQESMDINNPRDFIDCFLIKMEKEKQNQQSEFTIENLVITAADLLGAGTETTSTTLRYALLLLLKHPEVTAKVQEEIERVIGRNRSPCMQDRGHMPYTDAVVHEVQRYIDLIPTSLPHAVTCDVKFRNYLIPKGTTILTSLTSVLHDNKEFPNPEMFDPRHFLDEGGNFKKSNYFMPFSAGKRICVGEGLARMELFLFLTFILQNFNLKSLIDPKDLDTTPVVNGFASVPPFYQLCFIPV

Activity [3]: Dose-Dependent Effect | Activity [4]: Active | activity at 10 µM [5]: 74.7% | Activity [6]: Active | Activity [12]: inactive | Activity [14]: Dose-Dependent Effect | Activity [15]: Active | activity at 10 µM [16]: 84.9% | Activity [17]: Dose-Dependent Effect | remaining at 0.5 h [21]: 94.1% | remaining at 0.5 h [22]: 61%
SMILES: COc1cccnc1S(=O)(=O)/C=C/c1ncccc1Cl
Activity [1]: Active | Activity [2]: Active | Activity [7]: Active | Activity [8]: Active | Activity [9]: Active | Activity [10]: Active | Activity [11]: Non-Toxic | Activity [13]: Active | Activity [18]: Active | Activity [19]: Active | Activity [20]: Non-Toxic | Activity [23]: Active
